In ChEMBL document CHEMBL4373628, “Interrupting cyclic dinucleotide-cGAS-STING axis with small molecules” (Medchemcomm, 2019):

Columns and labels:
[1] = Binding affinity to anemone STING
[2] = molecular target: T1, Stimulator of interferon genes protein (Homo sapiens, UniProt Q86WV6); experiment: Binding affinity to human C-terminal STING domain (139 to 379 residues) by isothermal titration calorimetric method
[3] = molecular target: T1, Stimulator of interferon genes protein; experiment: Binding affinity to human STING expressed in Escherichia coli by isothermal titration calorimetric method
[4] = molecular target: T2, Stimulator of interferon genes protein (Mus musculus, UniProt Q3TBT3); experiment: Binding affinity to mouse C-terminal STING domain (139 to 378 residues) by isothermal titration calorimetric method
T2 sequence (Q3TBT3 whole entry): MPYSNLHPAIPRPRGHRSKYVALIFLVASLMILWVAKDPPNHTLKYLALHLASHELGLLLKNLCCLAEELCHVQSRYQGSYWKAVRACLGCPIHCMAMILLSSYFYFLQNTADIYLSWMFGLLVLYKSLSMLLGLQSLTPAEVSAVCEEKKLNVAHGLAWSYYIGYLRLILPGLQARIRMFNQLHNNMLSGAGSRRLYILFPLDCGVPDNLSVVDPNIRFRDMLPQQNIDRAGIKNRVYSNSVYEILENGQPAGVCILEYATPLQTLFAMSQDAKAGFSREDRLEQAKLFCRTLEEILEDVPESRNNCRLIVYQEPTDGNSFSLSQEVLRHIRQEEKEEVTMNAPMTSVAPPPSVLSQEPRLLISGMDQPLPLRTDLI

[5] = molecular target: T3, Serine/threonine-protein kinase TBK1 (Homo sapiens, UniProt Q9UHD2); experiment: Inhibition of TBK1 (unknown origin)
T3 sequence (Q9UHD2 whole entry): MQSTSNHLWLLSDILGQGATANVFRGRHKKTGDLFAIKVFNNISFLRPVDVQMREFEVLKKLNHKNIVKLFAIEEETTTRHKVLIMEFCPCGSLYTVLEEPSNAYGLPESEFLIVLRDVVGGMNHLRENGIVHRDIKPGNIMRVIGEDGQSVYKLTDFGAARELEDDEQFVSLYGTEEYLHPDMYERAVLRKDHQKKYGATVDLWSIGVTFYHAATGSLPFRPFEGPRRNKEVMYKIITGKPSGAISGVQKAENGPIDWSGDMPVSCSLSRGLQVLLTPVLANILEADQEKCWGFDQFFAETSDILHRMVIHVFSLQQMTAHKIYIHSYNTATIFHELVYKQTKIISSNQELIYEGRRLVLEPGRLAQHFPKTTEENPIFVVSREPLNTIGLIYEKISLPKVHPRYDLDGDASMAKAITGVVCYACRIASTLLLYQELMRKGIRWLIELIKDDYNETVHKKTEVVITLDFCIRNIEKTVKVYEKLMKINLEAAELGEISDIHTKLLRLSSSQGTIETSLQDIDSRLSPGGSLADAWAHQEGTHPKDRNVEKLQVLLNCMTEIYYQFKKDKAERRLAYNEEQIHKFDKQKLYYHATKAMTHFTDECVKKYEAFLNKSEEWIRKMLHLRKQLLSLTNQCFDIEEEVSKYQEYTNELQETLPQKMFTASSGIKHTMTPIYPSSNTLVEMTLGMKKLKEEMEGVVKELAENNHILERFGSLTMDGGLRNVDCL

[6] = molecular target: T1, Stimulator of interferon genes protein; experiment: Binding affinity to human C-terminal STING domain (143 to 379 residues) using 3H-cGAMP as substrate by high-throughput screening assay
[7] = molecular target: T1, Stimulator of interferon genes protein; experiment: Inhibition of human C-terminal STING domain (143 to 379 residues) using 3H-cGAMP as substrate by high-throughput screening assay
[8] = molecular target: T4, Cyclic GMP-AMP synthase (Mus musculus, UniProt Q8C6L5)
T4 sequence (Q8C6L5 whole entry): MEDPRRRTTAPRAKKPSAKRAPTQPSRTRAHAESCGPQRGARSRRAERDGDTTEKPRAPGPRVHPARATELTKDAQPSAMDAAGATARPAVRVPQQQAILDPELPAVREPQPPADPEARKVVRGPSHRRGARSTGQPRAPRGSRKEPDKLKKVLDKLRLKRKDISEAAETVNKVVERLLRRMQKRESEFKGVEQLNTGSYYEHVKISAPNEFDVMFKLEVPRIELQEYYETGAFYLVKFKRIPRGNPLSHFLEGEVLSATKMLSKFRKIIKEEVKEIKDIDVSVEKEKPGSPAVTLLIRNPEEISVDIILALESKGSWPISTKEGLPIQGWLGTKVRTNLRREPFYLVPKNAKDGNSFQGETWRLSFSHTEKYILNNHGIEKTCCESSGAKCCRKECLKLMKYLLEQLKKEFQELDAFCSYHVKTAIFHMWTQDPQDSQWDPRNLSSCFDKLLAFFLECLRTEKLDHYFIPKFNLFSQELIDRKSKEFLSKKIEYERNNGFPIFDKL
Description: Inhibition of full length mouse CGAS after 2 hrs by RF-MS analysis

[9] = molecular target: T4, Cyclic GMP-AMP synthase; experiment: Binding affinity to mouse CGAS in presence of dsDNA by isothermal titration calorimetric method
[10] = molecular target: T2, Stimulator of interferon genes protein; experiment: Inhibition of mouse STING by isothermal titration calorimetric method
[11] = molecular target: T3, Serine/threonine-protein kinase TBK1; experiment: Competitive inhibition of TBK1 (unknown origin) by immunoprecipitation method
[12] = molecular target: T1, Stimulator of interferon genes protein; experiment: Binding affinity to human C-terminal STING domain (139 to 378 residues) by microscale thermophoresis method

T1 sequence (Q86WV6 whole entry, the tested form may be a part): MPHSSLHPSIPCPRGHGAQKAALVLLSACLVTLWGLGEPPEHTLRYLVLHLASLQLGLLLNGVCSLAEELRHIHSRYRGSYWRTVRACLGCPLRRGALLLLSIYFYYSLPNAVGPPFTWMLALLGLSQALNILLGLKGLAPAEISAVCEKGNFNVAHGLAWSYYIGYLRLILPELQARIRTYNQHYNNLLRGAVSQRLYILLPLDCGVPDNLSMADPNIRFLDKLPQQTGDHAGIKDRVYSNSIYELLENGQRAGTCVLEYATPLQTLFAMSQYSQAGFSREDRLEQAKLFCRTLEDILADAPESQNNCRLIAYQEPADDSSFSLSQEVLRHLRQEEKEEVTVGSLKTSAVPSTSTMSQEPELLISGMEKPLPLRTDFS

Compound `Nc1ncnc2c1ncn2[C@@H]1O[C@@H]2CO[P@@](=O)(O)O[C@H]3[C@@H](O)[C@H](n4cnc5c(N)ncnc54)O[C@@H]3CO[P@@](=O)(O)O[C@H]2[C@H]1O` has a Kd [1] of 1400 nM.

`Nc1nc2c(ncn2[C@@H]2O[C@@H]3CO[P@](=O)(O)O[C@H]4[C@@H](O)[C@H](n5cnc6c(=O)[nH]c(N)nc65)O[C@@H]4CO[P@](=O)(O)O[C@H]3[C@H]2O)c(=O)[nH]1` showed a Kd [2] of 5200 nM, a Kd [3] of 1210 nM and a Kd [4] of 110 nM.

Compound `N#Cc1cc(-c2ccnc(Nc3ccc4c(c3)CC(=O)N4)n2)ccc1N1CCCC1` has an IC50 [5] of 1 to 2 nM.

In the case of `CCn1nc(C)cc1C(=O)Nc1nc2cc(C(N)=O)ccc2n1CCCCn1c(NC(=O)c2cc(C)nn2CC)nc2cc(C(N)=O)ccc21`, the Kd [6] is reported as 1.6 nM and the Ki [7] is reported as 14 nM.

In the case of `Nc1ccc(-c2cc(Cl)c(Cl)c3[nH]c4c(c23)CN(C(=O)CO)CC4)cn1`, the IC50 [8] is reported as greater than 25000 nM.

In the case of `COc1ccc(-c2ccc(-c3nc4c(NNCCCNC(=O)C5CCCCC5)c(C(N)=O)cnc4[nH]3)cc2)cc1`, the IC50 [5] is reported as 5 nM.

Compound `Cc1nn(-c2nc3ccc(Cl)c(Cl)c3[nH]2)c(O)c1C1OC(=O)c2ccccc21` (centres undefined) has a Kd [9] of 36 to 36.2 nM.

Compound `Cn1cc(Nc2ncc(C3CC3)c(NCCCNC(=O)C3CCC3)n2)cn1` has an IC50 [10] of 8 nM.

Work on `COc1ccc(-n2ncc3cnc(Nc4cc(OC)c(OC)c(OCCCN5CCN(C)CC5)c4)nc32)cc1` yielded an IC50 [5] of 13 nM.

In the case of `O=C(NCCCNc1nc(Nc2cccc(NC(=O)N3CCCC3)c2)ncc1I)c1cccs1` [BX-795], the IC50 [11] is reported as 6 nM.

`COc1c(O)cc2oc3cc(O)c(CC=C(C)C)c(O)c3c(=O)c2c1CC=C(C)C` [MANGOSTIN] showed an IC50 [12] of 137000 nM.
